IC50 data for 18 compounds are collected here from patent US20090111778A1, “2-Keto-Oxazoles as Modulators of Fatty Acid Amide Hydrolase” (priority 2005, published 2009).

Test [1] addresses T1, rat FAAH (Rattus norvegicus, UniProt P97612).
T1 construct: expressed in transfected cells
T1 sequence (P97612 1-579): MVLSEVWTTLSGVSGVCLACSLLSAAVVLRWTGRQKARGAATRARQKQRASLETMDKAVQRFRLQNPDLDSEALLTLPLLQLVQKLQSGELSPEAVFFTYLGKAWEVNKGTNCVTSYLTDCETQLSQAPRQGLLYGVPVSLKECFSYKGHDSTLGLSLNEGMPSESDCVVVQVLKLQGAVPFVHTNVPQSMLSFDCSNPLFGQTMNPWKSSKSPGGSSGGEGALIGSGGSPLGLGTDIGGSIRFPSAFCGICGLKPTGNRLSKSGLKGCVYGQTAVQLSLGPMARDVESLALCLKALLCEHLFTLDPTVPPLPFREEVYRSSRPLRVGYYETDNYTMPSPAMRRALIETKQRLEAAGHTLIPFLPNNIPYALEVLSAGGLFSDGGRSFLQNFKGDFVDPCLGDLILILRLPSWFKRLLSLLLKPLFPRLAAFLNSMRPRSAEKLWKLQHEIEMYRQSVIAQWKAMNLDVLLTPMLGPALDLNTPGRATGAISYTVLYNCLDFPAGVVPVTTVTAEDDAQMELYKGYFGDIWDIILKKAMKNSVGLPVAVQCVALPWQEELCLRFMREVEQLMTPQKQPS
The test can be described thus: Assay Method 2: FAAH assay, hydrolysis of 3H-anandamide by homogenate of SK-N-MC cells transfected with rat FAAH. Format: biochemical. Particulars: T84 or transfected SK-N-MC cell homogenate, 3H-AEA tracer 80 nM, rt 1 h, pH 9. Here is the method:
A. Transfection of Cells with Rat FAAH A 10-cm tissue culture dish with a confluent monolayer of SK-N-MC cells was split 2 days (d) prior to transfection. Using sterile technique, the media was removed and the cells were detached from the dish by the addition of trypsin. One fifth of the cells were then placed onto a new 10-cm dish. Cells were grown in a 37° C. incubator with 5% CO2 in Minimal Essential Media Eagle with 10% Fetal Bovine Serum. After 2 d, cells were approximately 80% confluent. These cells were removed from the dish with trypsin and pelleted in a clinical centrifuge. The pellet was re-suspended in 400 μL complete media and transferred to an electroporation cuvette with a 0.4 cm gap between the electrodes. Supercoiled rat FAAH cDNA (1 μg) was added to the cells and mixed. The voltage for the electroporation was set at 0.25 kV, and the capacitance was set at 960 μF. After electroporation, the cells were diluted into complete media (10 mL) and plated onto four 10-cm dishes. Because of the variability in the efficiency of electroporation, four different concentrations of cells were plated. The ratios used were 1:20, 1:10, and 1:5, with the remainder of the cells being added to the fourth dish. The cells were allowed to recover for 24 h before adding the selection media (complete media with 600 μg/mL G418). After 10 d, dishes were analyzed for surviving colonies of cells. Dishes with well-isolated colonies were used. Cells from individual colonies were isolated and tested. […] B. FAAH Assay […] The reaction mixture was incubated at rt for 1 h. During the incubation, 96-well Multiscreen filter plates (catalog number MAFCNOB50; Millipore, Bedford, Mass., USA) were loaded with 25 μL of activated charcoal (Multiscreen column loader, catalog number MACL09625, Millipore) and washed once with 100 μL of MeOH. Also during the incubation, 96-well DYNEX MicroLite plates (catalog number NL510410) were loaded with 100 μL of MicroScint40 (catalog number 6013641, Packard Bioscience, Meriden, Conn., USA). After the 1 h incubation, 60 μL of the reaction mixture were transferred to the charcoal plates, which were then assembled on top of the DYNEX plates using Centrifuge Alignment Frames (catalog number MACF09604, Millipore). The unbound labeled ethanolamine was centrifuged through to the bottom plate (5 min at 2000 rpm), which was preloaded with the scintillant, as described above. The plates were sealed and left at rt for 1 h before counting on a Hewlett Packard TopCount.

Test [2] concerns the target T2, human FAAH (Homo sapiens, UniProt O00519).
T2 construct: expressed in transfected cells
T2 sequence (O00519 1-579): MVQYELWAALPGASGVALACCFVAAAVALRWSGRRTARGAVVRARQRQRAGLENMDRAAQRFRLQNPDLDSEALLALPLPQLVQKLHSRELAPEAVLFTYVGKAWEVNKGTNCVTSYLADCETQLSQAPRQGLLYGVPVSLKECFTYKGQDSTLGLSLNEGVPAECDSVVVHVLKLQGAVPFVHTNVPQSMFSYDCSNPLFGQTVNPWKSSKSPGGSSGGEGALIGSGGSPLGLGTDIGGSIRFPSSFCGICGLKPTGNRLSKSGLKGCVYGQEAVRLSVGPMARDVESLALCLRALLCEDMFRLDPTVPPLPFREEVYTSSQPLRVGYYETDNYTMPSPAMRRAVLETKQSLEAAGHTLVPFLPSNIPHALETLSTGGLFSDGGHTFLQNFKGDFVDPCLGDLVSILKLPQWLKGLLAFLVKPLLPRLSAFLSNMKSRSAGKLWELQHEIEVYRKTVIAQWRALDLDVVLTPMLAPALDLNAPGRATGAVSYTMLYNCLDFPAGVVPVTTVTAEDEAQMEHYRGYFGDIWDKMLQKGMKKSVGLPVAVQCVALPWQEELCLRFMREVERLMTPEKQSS
The test can be described thus: Assay Method 1: FAAH assay, hydrolysis of 3H-anandamide by homogenate of SK-N-MC cells transfected with human FAAH. It is filed as biochemical. Particulars: human FAAH; T84 or transfected SK-N-MC cell homogenate; 3H-AEA tracer 80 nM; rt 1 h; pH 9; read-out: Assay 1 IC50. The method, then:
A. Transfection of Cells with Human FAAH
A 10-cm tissue culture dish with a confluent monolayer of SK-N-MC cells was split 2 days (d) prior to transfection. Using sterile technique, the media was removed and the cells were detached from the dish by the addition of trypsin. One fifth of the cells were then placed onto a new 10-cm dish. Cells were grown in a 37° C. incubator with 5% CO2 in Minimal Essential Media Eagle with 10% Fetal Bovine Serum. After 2 d, cells were approximately 80% confluent. These cells were removed from the dish with trypsin and pelleted in a clinical centrifuge. The pellet was re-suspended in 400 μL complete media and transferred to an electroporation cuvette with a 0.4 cm gap between the electrodes. Supercoiled human FAAH cDNA (1 μg) was added to the cells and mixed. The voltage for the electroporation was set at 0.25 kV, and the capacitance was set at 960 μF. After electroporation, the cells were diluted into complete media (10 mL) and plated onto four 10-cm dishes. Because of the variability in the efficiency of electroporation, four different concentrations of cells were plated. The ratios used were 1:20, 1:10, and 1:5, with the remainder of the cells being added to the fourth dish. The cells were allowed to recover for 24 h before adding the selection media (complete media with 600 μg/mL G418). After 10 d, dishes were analyzed for surviving colonies of cells. Dishes with well-isolated colonies were used. Cells from individual colonies were isolated and tested.
The assay mixture consisted of […] of the cell homogenate, 10 μL of the test compound, and 40 μL of anandamide [1-^3H-ethanolamine] (3H-AEA, Perkin-Elmer, 10.3 Ci/mmol), which was added last, for a final tracer concentration of 80 nM. The reaction mixture was incubated at rt for 1 h. During the incubation, 96-well Multiscreen filter plates (catalog number MAFCNOB50; Millipore, Bedford, Mass., USA) were loaded with 25 μL of activated charcoal (Multiscreen column loader, catalog number MACL09625, Millipore) and washed once with 100 μL of MeOH. Also during the incubation, 96-well DYNEX MicroLite plates (catalog number NL510410) were loaded with 100 μL of MicroScint40 (catalog number 6013641, Packard Bioscience, Meriden, Conn., USA). After the 1 h incubation, 60 μL of the reaction mixture were transferred to the charcoal plates, which were then assembled on top of the DYNEX plates using Centrifuge Alignment Frames (catalog number MACF09604, Millipore). The unbound labeled ethanolamine was centrifuged through to the bottom plate (5 min at 2000 rpm), which was preloaded with the scintillant, as described above. The plates were sealed and left at rt for 1 h before counting on a Hewlett Packard TopCount.

Molecules are shown by their SMILES. Where a name gives a salt, the structure may show the parent alone.

What is called IC50 is the concentration that inhibits the measured activity by half. In the case of `O=C(O)c1cccc(-c2cnc(C(=O)CCCC3CCN(Cc4cccc(-c5ccccc5)c4)CC3)o2)n1` [Example 149, 6-{2-[4-(1-Biphenyl-3-ylmethyl-piperidin-4-yl)-butyryl]-oxazol-5-yl}-pyridine-2-carboxylic acid trifluoroacetic acid salt], the figures for the 50% inhibitory concentration (IC50) in test [1] and in test [2] were 2 nM and 9 nM, respectively.

As to `O=C(CCCC1CCN(C(=O)CCc2ccc(Cl)cc2)CC1)c1ncco1` [Example 46, 4-{1-[3-(4-Chloro-phenyl)-propionyl]-piperidin-4-yl}-1-oxazol-2-yl-butan-1-one], the concentration for half-maximal inhibition (IC50) in test [1] came to 3 nM; in test [2], 12 nM.

Turning to `O=C(CCCC1CCN(Cc2cccc(F)c2F)CC1)c1ncco1` [Example 81, 4-[1-(2,3-Difluoro-benzyl)-piperidin-4-yl]-1-oxazol-2-yl-butan-1-one], the 50% inhibitory concentration (IC50) amounted to 1000 nM in test [1] and 200 nM in test [2].

Consider `O=C(CCCC1CCN(Cc2ccc(Cl)cc2)CC1)c1ncco1` [Example 9, 4-[1-(4-Chloro-benzyl)-piperidin-4-yl]-1-oxazol-2-yl-butan-1-one], for which the 50% inhibitory concentration (IC50) is 354 nM in test [1] and 66 nM in test [2].

As for `O=C(CCCC1CCN(Cc2ccc(Oc3ccccc3)nc2)CC1)c1ncco1` [Example 105, 1-Oxazol-2-yl-4-[1-(6-phenoxy-pyridin-3-ylmethyl)-piperidin-4-yl]-butan-1-one], the 50% inhibitory concentration (IC50) in test [1] came out at 57 nM; in test [2] it was 53 nM.

As to `Cc1ccccc1CCC(=O)N1CCC(CCCC(=O)c2ncco2)CC1` [Example 45, 1-Oxazol-2-yl-4-[1-(3-o-tolyl-propionyl)-piperidin-4-yl]-butan-1-one], the IC50 in test [1] amounted to 130 nM; in test [2] it was 109 nM.

For `CCCCCCCCCN1CCC(CCCC(=O)c2ncco2)CC1` [Example 127, 4-(1-Nonyl-Piperidin-4-yl)-1-oxazol-2-yl-butan-1-one], the IC50 in test [1] turned out to be 57 nM; in test [2], 8 nM.

Consider `CC(C)(C)OC(=O)N1CCC(CCCC(=O)c2ncc(C(=O)O)o2)CC1` [Example 130, 4-[4-(5-Carboxy-oxazol-2-yl)-4-oxo-butyl]-piperidine-1-carboxylic acid tert-butyl ester], for which the IC50 in test [1] came out at 19 nM; in test [2] it was 30 nM.

Regarding `O=C(CCCC1CCN(Cc2cnc3ccccc3c2)CC1)c1ncco1` [Example 21, 1-Oxazol-2-yl-4-(1-quinolin-3-ylmethyl-piperidin-4-yl)-butan-1-one], the results for the IC50 in test [1] and in test [2] were 86 nM and 29 nM, respectively.

As for `O=C(CCCC1CCN(C(=O)CCc2ccccc2)CC1)c1ncco1` [Example 36, 1-Oxazol-2-yl-4-[1-(3-phenyl-propionyl)-piperidin-4-yl]-butan-1-one], the half-maximal inhibitory concentration (IC50) in test [1] came to 56 nM; in test [2] it was 46 nM.

Turning to `CC(C)CCC(=O)N1CCC(CCCC(=O)c2ncco2)CC1` [Example 51, 4-Methyl-1-[4-(4-oxazol-2-yl-4-oxo-butyl)-piperidin-1-yl]-pentan-1-one], the results for the IC50 in test [1] and in test [2] were 635 nM and 230 nM, respectively.

On to `CC(C)c1ccc(CN2CCC(CCCC(=O)c3ncc(-c4cccc(C(=O)O)n4)o3)CC2)cc1` [Example 148, 6-(2-{4-[1-(4-isopropyl-benzyl)-piperidin-4-yl]-butyryl}-oxazol-5-yl)-pyridine-2-carboxylic acid trifluoroacetic acid salt], for which the results for the IC50 in test [1] and in test [2] were 56 nM and 60 nM, respectively.

For `Cc1cc(CC(=O)N2CCC(CCCC(=O)c3ncco3)CC2)on1` [Example 43, 4-{1-[2-(3-Methyl-isoxazol-5-yl)-acetyl]-piperidin-4-yl}-1-oxazol-2-yl-butan-1-one], the IC50 in test [2] was 4000 nM.

For the compound `O=C(CCCC1CCN(Cc2ccccn2)CC1)c1ncco1` [Example 4, 1-Oxazol-2-yl-4-(1-pyridin-2-ylmethyl-piperidin-4-yl)-butan-1-one], the IC50 in test [2] was found to be 3000 nM.

For the compound `COc1ccccc1CN1CCC(CCCC(=O)c2ncco2)CC1` [Example 87, 4-[1-(2-Methoxy-benzyl)-piperidin-4-yl]-1-oxazol-2-yl-butan-1-one], the IC50 in test [2] was determined as 4000 nM.

For the compound `O=C(CCCC1CCN(CCc2ccccc2)CC1)c1ncco1` [Example 95, 1-Oxazol-2-yl-4-(1-phenethyl-piperidin-4-yl)-butan-1-one], 1200 nM corresponded to half-maximal inhibition in test [1] (IC50).

Consider `O=C(CCCC1CCN(Cc2ccc(N3CCOCC3)cc2)CC1)c1ncco1` [Example 106, 4-[1-(4-Morpholin-4-yl-benzyl)-piperidin-4-yl]-1-oxazol-2-yl-butan-1-one], for which the half-maximal inhibitory concentration (IC50) in test [2] turned out to be 2000 nM.

Consider `O=C(CCCC1CCN(CC2CCCCC2)CC1)c1ncco1` [Example 86, 4-(1-Cyclohexylmethyl-piperidin-4-yl)-1-oxazol-2-yl-butan-1-one], for which the half-maximal inhibitory concentration (IC50) in test [2] was found to be 9500 nM.
